In PMC11202169, “A Novel Fluorescence-Based Microplate Assay for High-Throughput Screening of hSULT1As Inhibitors” (Biosensors, 2024):
Counter-ions that a name gives are not always drawn.

Key:
hSULT1A2 [1] = target: T1, hSULT1A2 (Homo sapiens, UniProt P50226); experiment: hSULT1As reaction phenotyping assay (HPLC), hSULT1A2; assay type: biochemical; settings: for Sulfation rate: peak area of the sulfated metabolite detected by HPLC, hSULT1A2: fluorophore 10 μM, PAPS 200 μM, 1 h, 37 °C
T1 construct: 6-histidine tag (N); TEV site (N); made in house; host or cells: Escherichia coli BL21 (DE3), pET29a(+)
Experimental: (§1) The incubation system consisted of Tris-HCl buffer (pH 7.4, 50 mM), MgCl2 (5 mM), DTT (200 μM), recombinant hSULT1As (29 pmol), and each fluorophore or 4-HN derivative (10 μM). After pre-incubation at 37 °C for 3 min, the reaction was initiated by adding an excess of PAPS (200 μM). Following 1 h incubation, the reaction was terminated with the addition of an equal volume of ice-cold acetonitrile. After centrifugation at 20,000× g for 20 min at 4 °C, the supernatant was collected for HPLC analysis. The mobile phase consisted of 10 mM aqueous ammonium acetate (A) and acetonitrile (B) at a flow rate of 0.4 mL/min. Gradient elution was performed under the following conditions: 0–2.0 min, 5% B; 2.0–10.0 min, 5–95% B; 10.0−12.0 min, 95% B; 12.0–12.5 min, 95–5% B; and 12.5–15.0 min, 5% B.

hSULT1A1 [2] = target: T2, hSULT1A1 (Homo sapiens, UniProt P50225); experiment: hSULT1As reaction phenotyping assay (HPLC), hSULT1A1; assay type: biochemical; settings: for Sulfation rate: peak area of the sulfated metabolite detected by HPLC, hSULT1A1: fluorophore 10 μM, PAPS 200 μM, 1 h, 37 °C
T2 construct: 6-histidine tag (N); TEV site (N); made in house; host or cells: Escherichia coli BL21 (DE3), pET29a(+)
Experimental: as §1

[3] = Fluorescence quantum yield; assay type: physicochemical; settings: physiological conditions; standard quinine sulfate (Φ = 0.55)
Experimental: The fluorescence quantum yield is defined as the ratio of the number of photons emitted to the number of photons absorbed, which is a key parameter in fluorescence spectroscopy that describes the efficiency of the fluorescence process. The fluorescence quantum yields (Φ) of HN-241 and HN-241 sulfate were measured using quinine sulfate in 50 mM aqueous H2SO4 (Φ = 0.55) as the standard, and calculated according to the following Equation (1). (1) Yu=Ys × Fu × As/Fs × Au
“A” represents the absorbance at the excitation wavelength, “F” denotes the integral fluorescence intensity, and the subscripts “s” and “u” refer to the standard and sample, respectively.

hSULT1As [4] = experiment: O-sulfation and spectroscopic changes with hSULT1As (statements for all isoforms together); assay type: biochemical, human; settings: substrate 10 μM, all tested hSULT1A isozymes
Experimental: as §1
The spectroscopic changes in these fluorophores following O-sulfation were investigated. The incubation system was the same as that used in Section 2.3. The emission spectra of eight fluorophores in the presence and absence of three hSULT1A isoforms were determined using BioTek Synergy H1.

hSULT1A3 [5] = target: T3, hSULT1A3 (Homo sapiens, UniProt P0DMM9); experiment: hSULT1As reaction phenotyping assay (HPLC), hSULT1A3; assay type: biochemical; settings: fluorophore 10 μM, PAPS 200 μM, 1 h, 37 °C
T3 construct: 6-histidine tag (N); TEV site (N); made in house; host or cells: Escherichia coli BL21 (DE3), pET29a(+)
Experimental: as §1

hSULT1A2 [6] = target: T1, hSULT1A2; experiment: Enzymatic kinetics of hSULT1A2-catalyzed HN-241 4-O-sulfation; assay type: biochemical
Experimental: (§2) The enzymatic kinetic parameters of hSULT1As-catalyzed HN-241 4-O-sulfation were measured by incubating increasing concentrations of HN-241 with each of the hSULT1As for a certain period. The fitting equations included Equation (2), the Michaelis–Menten equation, and Equation (3) for enzyme kinetics with substrate inhibition. Related kinetic parameters were fitted by GraphPad Prism 8.0 (San Diego, CA, USA). (2) V=Vmax × [S]/Km+[S] (3) V=Vmax × [S]/Km+[S](1+[S]/Ki)
(§3) [S] refers to the concentration of HN-241, Vmax is the maximum rate of hSULT1As-catalyzed HN-241 4-O-sulfation, Km is the substrate concentration at the half Vmax, and Ki represents the dissociation constant for the binding of the substrate to the inhibitory site.

hSULT1A3 [7] = target: T3, hSULT1A3; experiment: Enzymatic kinetics of hSULT1A3-catalyzed HN-241 4-O-sulfation; assay type: biochemical
Experimental: as §2, §3

hSULT1A1 [8] = target: T2, hSULT1A1; experiment: Enzymatic kinetics of hSULT1A1-catalyzed HN-241 4-O-sulfation; assay type: biochemical
Experimental: as §2, §3

hSULT1As [9] = system: hSULT1As; design: method as in PMID 12264750, PMID 35713964, PMID 6786543; settings: ascorbic acid as competitive inhibitor of hSULT1As; ref [13],[14],[15]; cited from earlier work

T2 sequence (P50225 whole entry): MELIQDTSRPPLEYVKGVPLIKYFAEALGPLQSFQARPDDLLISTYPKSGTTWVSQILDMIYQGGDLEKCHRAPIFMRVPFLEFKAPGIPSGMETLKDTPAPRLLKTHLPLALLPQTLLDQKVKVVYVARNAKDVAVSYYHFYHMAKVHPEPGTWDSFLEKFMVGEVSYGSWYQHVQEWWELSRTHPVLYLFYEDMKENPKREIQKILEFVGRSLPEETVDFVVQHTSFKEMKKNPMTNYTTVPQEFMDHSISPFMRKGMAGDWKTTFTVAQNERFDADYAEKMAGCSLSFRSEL
T3 sequence (P0DMM9 whole entry): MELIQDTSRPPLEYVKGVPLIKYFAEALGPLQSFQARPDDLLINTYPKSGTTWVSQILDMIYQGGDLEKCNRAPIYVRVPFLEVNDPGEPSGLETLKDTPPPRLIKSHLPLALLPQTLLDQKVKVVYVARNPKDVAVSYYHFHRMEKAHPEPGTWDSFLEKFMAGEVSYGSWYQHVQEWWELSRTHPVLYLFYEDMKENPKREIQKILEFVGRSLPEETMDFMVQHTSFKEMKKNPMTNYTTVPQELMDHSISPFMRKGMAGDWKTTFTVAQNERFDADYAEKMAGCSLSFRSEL
T1 sequence (P50226 whole entry): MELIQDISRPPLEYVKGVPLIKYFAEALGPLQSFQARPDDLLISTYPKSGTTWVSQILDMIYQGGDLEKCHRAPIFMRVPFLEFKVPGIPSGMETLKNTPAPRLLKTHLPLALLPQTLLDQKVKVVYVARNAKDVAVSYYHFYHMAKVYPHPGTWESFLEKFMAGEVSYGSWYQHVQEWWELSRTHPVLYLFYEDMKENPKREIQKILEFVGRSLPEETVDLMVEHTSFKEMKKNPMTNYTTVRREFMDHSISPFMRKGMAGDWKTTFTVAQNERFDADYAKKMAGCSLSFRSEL

Compound	Sulfation rate: peak area of the sulfated metabolite detected by HPLC, hSULT1A2 (hSULT1A2 [1])	Sulfation rate: peak area of the sulfated metabolite detected by HPLC, hSULT1A1 (hSULT1A1 [2])	O-sulfation by hSULT1As (in words) (hSULT1As [4])	also measured
CC1(C)OC(=C(C#N)C#N)C(C#N)=C1/C=C/c1ccc2cc(O)ccc2c1 [fluorophore F]	+ (“+” shows the peak area of the sulfated metabolites of each fluorophore detected by HPLC, ranging from 0 to 10,000)	+++ (“++” and “+++” denote ranges from 10,000 to 50,000, and greater than 50,000, respectively)		
CCN1C(=O)c2cccc3c(OS(=O)(=O)O)ccc(c23)C1=O [HN-241 sulfate]				Fluorescence quantum yield (Φ) [3]: 0.86
CC1=[N+]2C(=C(c3ccc(O)cc3)c3ccc(C)n3[B-]2(F)F)C=C1 [fluorophore C]			could not be sulfated	
CCCCN1C(=O)c2cccc3c(O)ccc(c23)C1=O [fluorophore B, 4-hydroxy-N-butyl-1,8-naphthalimide]	++ (“++” and “+++” denote ranges from 10,000 to 50,000, and greater than 50,000, respectively)	++ (“++” and “+++” denote ranges from 10,000 to 50,000, and greater than 50,000, respectively)		Sulfation rate: peak area of the sulfated metabolite detected by HPLC, hSULT1A3 (hSULT1A3 [5]): ++ (“++” and “+++” denote ranges from 10,000 to 50,000, and greater than 50,000, respectively)
CCN1C(=O)c2cccc3c(O)ccc(c23)C1=O [HN-241, 4-hydroxy-N-ethyl-1,8-naphthalimide]			highest O-sulfation rate	Clint (hSULT1A2 [6]; hSULT1A2): 1440.94 μL/min/mg Protein; Vmax (hSULT1A2 [6]; hSULT1A2, Michaelis–Menten kinetics): 6441.00 pmol/min/mg Protein; Fluorescence quantum yield (Φ) [3]: 0.02; Clint (hSULT1A3 [7]; hSULT1A3): 683.26 μL/min/mg Protein; Vmax (hSULT1A3 [7]; hSULT1A3, Michaelis–Menten kinetics): 8814.00 pmol/min/mg Protein; Clint (hSULT1A1 [8]; HN-241 4-O-sulfation): 24,265.93 μL/min/mg Protein; Ki (hSULT1A1 [8]; substrate inhibition constant of HN-241 (binding of substrate to the inhibitory site)): 1.37 ± 0.4 µM
CCCCN1C(=O)c2cccc3c4c(cc(c23)C1=O)C(C)(C)C(/C=C/c1ccc(O)cc1)=N4 [fluorophore G]			could not be sulfated	
CN(C)CCN1C(=O)c2cccc3c(O)ccc(c23)C1=O [HN-283]			very slow O-sulfation rates	
Cc1ccc(NC(=O)CCCN2C(=O)c3cccc4c(O)ccc(c34)C2=O)cc1 [HN-388]				O-sulfation in hSULT1A2 (in words) (hSULT1A2 [1]; 4-HN derivative 10 μM): scarcely metabolized; O-sulfation in hSULT1A1 (in words) (hSULT1A1 [2]; 4-HN derivative 10 μM): rapidly metabolized
O=C1c2cccc3c(O)ccc(c23)C(=O)N1CCc1ccccc1 [HN-317]			very slow O-sulfation rates	
O=C1c2cccc3c(O)ccc(c23)C(=O)N1CCc1ccc(F)cc1 [HN-335]			very slow O-sulfation rates	
O=C(O)CCCN1C(=O)c2cccc3c(O)ccc(c23)C1=O [HN-299]			very slow O-sulfation rates	
CC1(C)OC(=C(C#N)C#N)C(C#N)=C1/C=C/c1cc2ccc(O)cc2oc1=O [fluorophore E]	+++ (“++” and “+++” denote ranges from 10,000 to 50,000, and greater than 50,000, respectively)	+ (“+” shows the peak area of the sulfated metabolites of each fluorophore detected by HPLC, ranging from 0 to 10,000)		Sulfation rate: peak area of the sulfated metabolite detected by HPLC, hSULT1A3 (hSULT1A3 [5]): +++ (“++” and “+++” denote ranges from 10,000 to 50,000, and greater than 50,000, respectively)
O=C1O[C@H]([C@@H](O)CO)C(O)=C1O [ascorbic acid]				Boost of the bioavailability of ethinylestradiol (hSULT1As [9]): approximately 50%
CC[n+]1ccc(/C=C/c2ccc(-c3ccc(O)cc3)s2)c2ccccc21 [fluorophore H]	++ (“++” and “+++” denote ranges from 10,000 to 50,000, and greater than 50,000, respectively)	+++ (“++” and “+++” denote ranges from 10,000 to 50,000, and greater than 50,000, respectively)	highest O-sulfation rate	Sulfation rate: peak area of the sulfated metabolite detected by HPLC, hSULT1A3 (hSULT1A3 [5]): +++ (“++” and “+++” denote ranges from 10,000 to 50,000, and greater than 50,000, respectively)
N#CC(C#N)=C1C=C(/C=C/c2ccc(O)cc2)Oc2ccccc21 [fluorophore D]	++ (“++” and “+++” denote ranges from 10,000 to 50,000, and greater than 50,000, respectively)	+++ (“++” and “+++” denote ranges from 10,000 to 50,000, and greater than 50,000, respectively)		
O=c1ccc2nc3ccc(O)cc3oc-2c1 [fluorophore A]	+ (“+” shows the peak area of the sulfated metabolites of each fluorophore detected by HPLC, ranging from 0 to 10,000)	++ (“++” and “+++” denote ranges from 10,000 to 50,000, and greater than 50,000, respectively)		
